Here are results for two molecules from paper PMC5309245, “Discovery and Characterization of Diazenylaryl Sulfonic Acids as Inhibitors of Viral and Bacterial Neuraminidases” (Frontiers in Microbiology, 2017).

Where “and” joins values, the source holds several entries; their conditions need not be identical. Identical values can stand only once. Counter-ions that a name gives are not always drawn. Like-named read-outs stand apart in the source and are kept apart here.

Series [1] addresses IAV HK/68 NA (whole virus) (Influenza A virus, UniProt Q91MA2). In words: biochemical. The arrangement: species or system influenza A virus A/Hong Kong/68 (H3N2). The settings on record: NA inhibition using FL assay IC50, IAV HK/68.
Series [2] deals with T1, S. pneumoniae DSM20566 NA (NanA) (Streptococcus pneumoniae, UniProt P62575).
T1 construct: host or cells: either rNanA from E. coli BL21(DE3) or total precipitated protein of S. pneumoniae DSM20566
In words: FL NA inhibition assay, S. pneumoniae DSM20566. Format: biochemical. Conditions: MUNANA substrate; read-out: NA inhibition using FL assay IC50, S. p. DSM20566.

In another series the test system is IAV 5258/09 NA. In words: Hemagglutination (HA)-based NA inhibition assay, IAV 5258/09. The series is classed as cell-based, influenza A virus A/Jena/5258/2009 (H1N1). The settings on record: human erythrocytes.
Series [3] addresses T2, S. pneumoniae DSM20566 NA (Streptococcus pneumoniae, UniProt P62575).
T2 construct: host or cells: either rNanA from E. coli BL21(DE3) or total precipitated protein of S. pneumoniae DSM20566
Briefly: HA-based NA inhibition assay, S. pneumoniae DSM20566. The series is classed as cell-based. The settings on record: human erythrocytes.

Series [4] has as its target S. pneumoniae recombinant NanA 8919_LC (Streptococcus pneumoniae, UniProt P62575). Briefly: biochemical. Format: biochemical, Streptococcus pneumoniae CF8919.
Series [5] concerns the target S. pneumoniae recombinant NanA 20566_LC (Streptococcus pneumoniae, UniProt P62575). In words: biochemical. Details: species or system Streptococcus pneumoniae DSM20566.
Series [6] addresses S. pneumoniae recombinant NanA 20566_CC (Streptococcus pneumoniae, UniProt P62575). Briefly: biochemical. The arrangement: species or system Streptococcus pneumoniae DSM20566.
The target in series [7] is S. pneumoniae recombinant NanA 9400_LC (Streptococcus pneumoniae, UniProt P62575). Briefly: biochemical. Details: species or system Streptococcus pneumoniae CJ9400.
Series [8] addresses S. pneumoniae recombinant NanA 9400_CC (Streptococcus pneumoniae, UniProt P62575). Briefly: biochemical. The series is classed as biochemical, Streptococcus pneumoniae CJ9400.
For series [9], the target named is Influenza virus A/WSN/33 NA-wt (whole virus) (Influenza A virus, UniProt P03470). The series is classed as biochemical, influenza A virus A/WSN/1933 (H1N1). Conditions: for Km: Km for MUNANA, kinetics with 1.
Series [10] relates to influenza A virus 8178/09. In words: microbe, parasite or virus in culture. Format: cell-based, influenza A virus A/Jena/8178/2009 (H1N1). Conditions: Influenza A virus, MDCK, 48 h, read-out: 50% inhibitory concentration, influenza A virus 8178/09.
A further series concerns influenza A virus WSN/33. In words: microbe, parasite or virus in culture. Conditions: Influenza A virus, WSN, MDCK, 48 h, read-out: 50% inhibitory concentration, influenza A virus WSN/33. Format: cell-based, influenza A virus A/WSN/1933 (H1N1).
For a further series, the system named is influenza A virus HK/68. In words: microbe, parasite or virus in culture. Conditions: Influenza A virus, MDCK, 48 h, read-out: 50% inhibitory concentration, influenza A virus HK/68. Format: cell-based, influenza A virus A/Hong Kong/68 (H3N2).
Series [11] has as its system 8178/09-, WSN/33-, or HK/68-induced cytopathic effect. In words: CPE inhibition assay (viruses not separated). The series is classed as cell-based. Conditions: Influenza A virus, MDCK, read-out: IC50 of inhibition of the 8178/09-, WSN/33-, or HK/68-induced cytopathic effect.
In series [12] the test system is S. pneumoniae DSM20566. In words: Microtiter broth microdilution assay, planktonic growth. The settings on record: Streptococcus pneumoniae, DSM20566; 18 h, maximum 50 μM; read-out: 50% inhibitory concentration, S. pneumoniae DSM20566 planktonic growth. The series is classed as cell-based, Streptococcus pneumoniae DSM20566.
In series [13] the test system is S. pneumoniae DSM20566 biofilm. In words: Biofilm inhibition assay. The series is classed as cell-based, Streptococcus pneumoniae DSM20566. The settings on record: Streptococcus pneumoniae, DSM20566; 50 μM; read-out: Inhibition of biofilm formation at the maximum tested concentration.
Series [14] deals with S. pneumoniae DSM20566. Briefly: Bactericidal or bacteriostatic activity (subculture on blood agar). Format: cell-based, Streptococcus pneumoniae DSM20566. The settings on record: 50 µM.
The subject of series [15] is Influenza virus A/Jena/8178/09. The series is classed as cell-based, influenza A virus A/Jena/8178/2009 (H1N1).
The next series relates to WSN/33. Format: cell-based, influenza A virus A/WSN/1933 (H1N1).
The subject of series [16] is human erythrocytes. Format: cell-based. The settings on record: human erythrocytes, 2 h at 4°C. Here is the method:
(§1) Viral (whole virus) and bacterial NA activity as well as their inhibition were measured by using a fluorescence (FL) assay with the substrate 2′-(4-methylumbelliferyl)-α-D-N-acetylneuraminic acid sodium salt hydrate (MUNANA, 100 μM; Sigma-Aldrich GmbH, Taufkirchen, Germany), and/or a hemagglutination (HA)-based NA inhibition assay (HA assay) with human erythrocytes (Institute of Transfusion Medicine, University Hospital Jena, Jena, Germany), both assays as published recently (Richter et al., [2015]). Recombinant NanA (rNanA) and total precipitated bacterial protein of S. pneumoniae DSM20566 were used in FL and HA assays. Interference of the compounds with the FL signal (self-fluorescence and quenching) was excluded as described previously (Richter et al., [2015]). […] Each compound was tested at least three times in both NA inhibition assays.
Supplementary Table 1. Assay interference phenomena of test compounds in the HA-based […]
sample concentrations [µM] in viral HA-assay bacterial HA-assay […]
hem- prevention of erythrocyte hem- erythrocyte agglutinationa virus-induced lysisc agglutinationd lysise […]
cTest compounds lysed the human erythrocytes (2 h at 4°C). […]

The subject of series [17] is human erythrocytes. Format: cell-based. The settings on record: human erythrocytes, 4 h at 37°C and 12 h at 4°C. As for the experimental part: as §1
Supplementary Table 1. […]
eTest compounds lysed the human erythrocytes (4 h at 37°C and 12 h at 4°C).

Another series in a line: in vitro. Conditions: dog.

Sequence of S. pneumoniae recombinant NanA 8919_LC (P62575 116-833): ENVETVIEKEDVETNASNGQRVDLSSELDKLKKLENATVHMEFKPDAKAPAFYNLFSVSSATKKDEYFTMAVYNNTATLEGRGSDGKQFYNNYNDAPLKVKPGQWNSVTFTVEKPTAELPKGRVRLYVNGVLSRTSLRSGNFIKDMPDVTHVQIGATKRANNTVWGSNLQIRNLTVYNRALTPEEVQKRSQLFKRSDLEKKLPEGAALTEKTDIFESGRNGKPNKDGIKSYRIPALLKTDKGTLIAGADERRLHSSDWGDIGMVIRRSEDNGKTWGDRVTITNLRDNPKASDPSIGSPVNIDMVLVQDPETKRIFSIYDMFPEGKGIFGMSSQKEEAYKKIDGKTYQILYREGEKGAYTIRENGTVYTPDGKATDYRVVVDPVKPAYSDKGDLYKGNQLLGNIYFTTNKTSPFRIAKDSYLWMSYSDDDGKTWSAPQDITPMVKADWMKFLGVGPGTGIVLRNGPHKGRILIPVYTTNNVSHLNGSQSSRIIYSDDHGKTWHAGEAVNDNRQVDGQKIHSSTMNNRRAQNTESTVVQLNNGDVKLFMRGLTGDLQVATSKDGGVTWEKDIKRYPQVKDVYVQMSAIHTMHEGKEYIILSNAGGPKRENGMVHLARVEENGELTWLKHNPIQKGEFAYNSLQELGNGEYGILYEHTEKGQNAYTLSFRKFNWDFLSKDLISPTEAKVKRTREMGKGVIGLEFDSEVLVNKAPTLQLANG
Sequence of S. pneumoniae recombinant NanA 20566_LC (P62575 116-833): as above
Sequence of S. pneumoniae recombinant NanA 9400_LC (P62575 116-833): as above
Sequence of Influenza virus A/WSN/33 NA-wt (whole virus) (P03470 whole entry, looked up): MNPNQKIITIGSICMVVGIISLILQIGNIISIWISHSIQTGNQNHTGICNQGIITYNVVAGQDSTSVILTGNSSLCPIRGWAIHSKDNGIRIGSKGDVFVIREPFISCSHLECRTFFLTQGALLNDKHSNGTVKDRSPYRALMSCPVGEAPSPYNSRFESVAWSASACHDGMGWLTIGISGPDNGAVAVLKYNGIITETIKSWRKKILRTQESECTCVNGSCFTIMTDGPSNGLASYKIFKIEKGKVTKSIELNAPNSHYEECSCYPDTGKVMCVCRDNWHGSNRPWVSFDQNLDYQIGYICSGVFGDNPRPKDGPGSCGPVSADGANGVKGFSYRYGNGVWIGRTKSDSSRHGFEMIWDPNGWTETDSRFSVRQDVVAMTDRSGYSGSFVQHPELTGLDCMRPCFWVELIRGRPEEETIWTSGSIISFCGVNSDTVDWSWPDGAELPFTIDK
Sequence of S. pneumoniae recombinant NanA 9400_CC (P62575 311-833): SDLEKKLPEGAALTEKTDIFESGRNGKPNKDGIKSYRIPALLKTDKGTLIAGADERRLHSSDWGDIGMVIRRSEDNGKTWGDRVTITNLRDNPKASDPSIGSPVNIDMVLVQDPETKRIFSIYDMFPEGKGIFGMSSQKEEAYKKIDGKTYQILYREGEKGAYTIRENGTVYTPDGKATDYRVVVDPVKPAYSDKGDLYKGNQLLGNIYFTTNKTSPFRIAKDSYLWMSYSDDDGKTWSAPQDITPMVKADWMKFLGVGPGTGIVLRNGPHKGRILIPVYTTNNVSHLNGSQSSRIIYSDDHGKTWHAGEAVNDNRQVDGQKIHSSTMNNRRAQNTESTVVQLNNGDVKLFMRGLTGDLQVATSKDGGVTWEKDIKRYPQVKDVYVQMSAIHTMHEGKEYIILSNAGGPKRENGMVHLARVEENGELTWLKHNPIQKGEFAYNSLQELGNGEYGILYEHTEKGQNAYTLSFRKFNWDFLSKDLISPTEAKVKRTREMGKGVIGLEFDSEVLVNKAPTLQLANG
Sequence of S. pneumoniae recombinant NanA 20566_CC (P62575 311-833): as above
T2 sequence (P62575 54-1035): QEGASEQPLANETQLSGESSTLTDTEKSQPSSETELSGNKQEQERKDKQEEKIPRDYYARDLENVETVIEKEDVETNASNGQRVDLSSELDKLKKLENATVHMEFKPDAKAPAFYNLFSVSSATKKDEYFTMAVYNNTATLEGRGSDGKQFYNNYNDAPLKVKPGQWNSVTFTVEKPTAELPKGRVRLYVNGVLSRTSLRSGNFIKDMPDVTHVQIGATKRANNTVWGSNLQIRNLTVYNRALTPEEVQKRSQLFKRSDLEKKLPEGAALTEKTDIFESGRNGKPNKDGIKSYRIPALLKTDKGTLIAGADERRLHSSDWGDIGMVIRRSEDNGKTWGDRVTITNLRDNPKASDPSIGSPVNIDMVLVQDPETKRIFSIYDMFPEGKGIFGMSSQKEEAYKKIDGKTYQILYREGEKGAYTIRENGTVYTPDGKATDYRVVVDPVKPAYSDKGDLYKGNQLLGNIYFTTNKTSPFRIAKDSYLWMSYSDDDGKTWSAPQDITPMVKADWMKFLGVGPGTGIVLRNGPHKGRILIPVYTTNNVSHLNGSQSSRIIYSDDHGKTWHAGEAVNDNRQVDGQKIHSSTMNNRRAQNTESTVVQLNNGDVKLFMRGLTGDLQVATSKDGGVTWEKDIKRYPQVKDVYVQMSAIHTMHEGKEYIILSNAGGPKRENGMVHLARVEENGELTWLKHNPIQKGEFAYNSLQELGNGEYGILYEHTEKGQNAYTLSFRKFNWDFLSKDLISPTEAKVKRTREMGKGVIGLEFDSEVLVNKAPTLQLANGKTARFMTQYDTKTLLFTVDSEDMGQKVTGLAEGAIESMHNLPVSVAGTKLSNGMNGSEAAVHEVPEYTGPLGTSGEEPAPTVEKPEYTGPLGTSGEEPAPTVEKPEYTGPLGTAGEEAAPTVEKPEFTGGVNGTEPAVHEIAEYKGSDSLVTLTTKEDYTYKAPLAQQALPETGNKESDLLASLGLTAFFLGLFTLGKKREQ

Regarding `Cc1cc(N=Nc2ccc(N=Nc3c(O)c(S(=O)(=O)O)cc4cc(S(=O)(=O)O)ccc34)cc2C)ccc1N=Nc1ccc2cc(S(=O)(=O)O)cc(S(=O)(=O)O)c2c1` [Compound 1, 7-[2-[4-[2-[4-[2-(2-hydroxy-3,6-disulfo-1-naphthalenyl)diazenyl]-2-methylphenyl]diazenyl]-2-methylphenyl]diazenyl]-1,3-naphthalenedisulfonic acid], the IC50 in series [1] was 1420 ± 440 nM; in [2], 320 ± 50 nM; in series [10], 20400 ± 2510 nM; in the series on influenza A virus WSN/33, 7170 ± 960 nM; with influenza A virus HK/68 it was 18500 ± 9590 nM; in series [11], under 15000 nM. In the series with S. pneumoniae DSM20566 [12], the IC50 came to 28800 ± 13100 nM. The “NA inhibition using HA assay MIC, IAV 5258/09” value in the series on IAV 5258/09 NA was found to be 10.00 ± 0.00 µM. Moreover, the “NA inhibition using HA assay MIC, S. p. DSM20566” value in series [3] amounted to 7.26 ± 3.75 µM. Also, the Binding mechanism result in [4], in series [5], in [6], in series [7], in series [8] and in series [9] was “Mixed” each time. Moreover, the inhibition constant Ki in [4] worked out at 110 ± 20 nM; in series [5] (Ki), 120 ± 10 nM; in series [5] (Ki (fit in Lineweaver-Burk plot, Supplementary Figure 2B)) it was 103 nM; in series [6] (Ki) it was 160 ± 30 nM; in series [6] (Ki (fit in Lineweaver-Burk plot, Supplementary Figure 2C)), 143 nM; in series [7] (Ki) it was 190 ± 20 nM. In addition, the Ki in series [7] (Ki (fit printed in Lineweaver-Burk plot, Supplementary Figure 2D)) worked out at 172 nM; in series [8], 160 ± 10 nM. Besides, the “alpha (fit printed in Lineweaver-Burk plot, Supplementary Figure 2A)” value in series [4] is 7,8. Moreover, the “alpha (fit in Lineweaver-Burk plot, Supplementary Figure 2B)” value in series [5] is 12,9. In addition, the “alpha (fit in Lineweaver-Burk plot, Supplementary Figure 2C)” value in series [6] is on record as 5,5. In addition, in series [8], the “alpha (fit printed in Lineweaver-Burk plot, Supplementary Figure 2E)” value is 3,7. Besides, in [9], the “binding kinetics (effect of pre-incubation on Ki)” value is listed as “fast-binding inhibitor”. Also, in series [13], the inhibition at 50 µM was 49%. Besides, the “Activity (bactericidal or bacteriostatic)” value in the series on S. pneumoniae DSM20566 [14] is given as “bacteriostatic”. For the same molecule, the “cfu per agar plate” value in the series on S. pneumoniae DSM20566 [14] (18 h, then subculture) is recorded as over 150. The “Mean reduction in plaque numbers ± SD” value in [15] is 96.10 ± 3.45% and 96.46 ± 1.08% and 97.76 ± 0.65% and 94.12 ± 3.06%. The “Mean ± SD of both experiments, reduction in plaque numbers” value in series [15] is 95.29 ± 1.65% and 96.93 ± 1.17%. Besides, in the series with WSN/33, the “Decrease of plaque formation, compound during the whole replication cycle” value is listed as “up to 100%”. Moreover, the “Plaque numbers after pretreatment of MDCK cells” value with WSN/33 was “not affected”. Besides, the “Reduction of plaque number after pretreatment of the cell-free virus” value in the series on WSN/33 is reported as ~ 95%. Further, the “Reduction of plaque number, compound added during virus adsorption” value in the series with WSN/33 was 50%. For the same molecule, the “sample concentrations provoking erythrocyte lysis, viral HA-assay” value in the series with human erythrocytes [16] is listed as “no”. The “sample concentrations provoking erythrocyte lysis, bacterial HA-assay” value in the series on human erythrocytes [17] is reported as “no”. The molecule further yielded a CC50 in the series “in vitro” of over 100000 nM.

On to `CC(=O)N[C@H]1[C@H]([C@H](O)[C@H](O)CO)O[C@@](Oc2ccc3c(C)cc(=O)oc3c2)(C(=O)O)C[C@@H]1O` [MUNANA, 2′-(4-methylumbelliferyl)-α-D-N-acetylneuraminic acid sodium salt hydrate, reference compound], for which the Km in series [4] (Km for MUNANA, kinetics with 1) stood at 18 ± 2.39 µM; in series [5] (Km for MUNANA, kinetics with 1), 17.9 ± 2.12 µM; in series [6] (Km for MUNANA, kinetics with 1), 20.2 ± 4.74 µM; in series [7] (Km for MUNANA, kinetics with 1) it was 46.2 ± 1.71 µM; in series [8] (Km for MUNANA, kinetics with 1), 46.4 ± 3.93 µM; in [9] (20 min preincubation) it was 44.2 ± 4.63 µM. For the same molecule, the Michaelis-Menten constant (Km) in [9] (without preincubation (n = 2)) turned out to be 40 ± 3.86 µM.
